Measurements: patent US20250235450A1, “COMBINATION THERAPIES COMPRISING APREMILAST AND TYK2 INHIBITORS” (Celgene Corporation, priority 2019, published 2025)
“Also recorded” adds a separate entry of the source.

Legend:
LPS stimulated PBMCs = test: Cytokine production in LPS stimulated PBMCs; assay type: cell-based, human; parameters: key to IL-2 / IFNα2 / IFSNβ / IL-4 / IL-5 / IL-6 / IL-10 / IL-13 / IL-15 / IL-17 / IL-22 / IL-1β / IL-1ra / IL-23 / IL-12p40 / IL-12p70 / TNF-α / IFNγ / MCP-1 / GM-CSF / G-CSF: ↑: Induced; —: No change; ↓: Reduced; details: for effect on IFN-γ production / effect on IL-12p40 production / effect on IL-12p70 production / effect on IL-23 production / effect on MCP-1 production / effect on TNF-α production: vs DMSO control
Description: Peripheral blood mononuclear cells (PBMCs) isolation: Whole blood was received through the Celgene Donor program after informed consent and donor deidentification. All volunteers were healthy and were not on any medications for at least 72 hours prior to the blood draw. Blood was collected in Sodium Heparin tubes and were used within 2 hours of the blood draw for PBMCs isolation. Before PBMCs isolation, whole blood was diluted 1:1 with PBS solution containing 2% FBS (2% FBS-PBS). 13 ml of Ficoll-Paque solution was loaded in the SepMate® tube and 25 ml of diluted blood was loaded on top of the Ficoll-Paque. Centrifugation at 1200 g for 15 minutes with the brake on for cell separation, after which isolated PBMCs were transferred into a new tube. PBMCs were washed with 2% FBS-PBS and centrifuged at 800 g 10 minutes. Pellets were resuspended in 2% FBS-PBS and filtered through a 40 μm cell strainer to obtain single-cell suspension. 3 ml of RBC lysis buffer were used to eliminate red blood cells in the isolated population. Isolated PBMCs were washed with 2% FBS-PBS and were resuspended in RPMI growth medium containing 10% FBS and antibiotics.
For Example 6-11, PBMCs from 9 healthy donors were isolated and LPS-stimulated ex-vivo for IL-23, IL-12p40, IL-12p70, TNF-α, IFN-γ and MCP-1 cytokine analysis. PBMCs were plated in 96 well plate at a density of 200,000 cells per well in 200 μl of RPMI growth medium containing 10% FBS followed by treatment with DMSO and compounds. Each well received the same amount of DMSO, which is 0.3% v/v as final concentration. Series dilutions of compound treatment was performed according to Table 4 shown below. After two hours of compound treatment, LPS 100 ng/ml as final concentration was used as the stimulator. PBMCs were then incubated in a 37° C./5% CO2 incubator for 16 hours.
After 16 hours incubation, supernatants were collected into new 96-well polypropylene plates and centrifuged at 4000 rpm for 10 minutes to get rid of cell debris. Cytokine production was measured by Luminex Bio-Plex Multiplex Immunoassay (Bio-Rad) according to the manufacturer's procedures. To ensure that supernatant level was within the range of the standard cytokine for the assay, samples were diluted 5 fold for IL-12p40 and 27-plex assays, and used neat for IL-23 assay.
Data processing for PBMCs assays was done using Bio-plex manager, and raw data was exported to Excel template for the cytokine analysis. Data was plotted using GraphPad Prism 7.0 (GraphPad Software, Inc., La Jolla, CA) and expressed as % of DMSO control. Statistical analysis was performed using One Way ANOVA and Tukey's multiple comparisons test.
To evaluate the combinatory effect of apremilast and BMS-986165, data from the two independent treatments were analyzed by comparing the combinatory response against the theoretical additive response of the two agents. The expected additive effect of two agents (A and B) was calculated using the fractional product method: (fu)A,B=(fu)A×(fu)B; where fu=fraction unaffected by treatment.

[1] = tested on: moderate to severe plaque psoriasis; details: cited from earlier work

Structure (SMILES)	G-CSF (LPS stimulated PBMCs; LPS stimulated PBMCs)	GM-CSF (LPS stimulated PBMCs; LPS stimulated PBMCs)	IFNα2 (LPS stimulated PBMCs; LPS stimulated PBMCs)	IFNγ (LPS stimulated PBMCs; LPS stimulated PBMCs)	IFSNβ (LPS stimulated PBMCs; LPS stimulated PBMCs)	IL-1ra (LPS stimulated PBMCs; LPS stimulated PBMCs)	IL-1β (LPS stimulated PBMCs; LPS stimulated PBMCs)	IL-2 (LPS stimulated PBMCs; LPS stimulated PBMCs)	IL-4 (LPS stimulated PBMCs; LPS stimulated PBMCs)	IL-5 (LPS stimulated PBMCs; LPS stimulated PBMCs)	IL-6 (LPS stimulated PBMCs; LPS stimulated PBMCs)	IL-10 (LPS stimulated PBMCs; LPS stimulated PBMCs)	IL-12p40 (LPS stimulated PBMCs; LPS stimulated PBMCs)	IL-12p70 (LPS stimulated PBMCs; LPS stimulated PBMCs)	IL-13 (LPS stimulated PBMCs; LPS stimulated PBMCs)	IL-15 (LPS stimulated PBMCs; LPS stimulated PBMCs)	IL-17 (LPS stimulated PBMCs; LPS stimulated PBMCs)	IL-22 (LPS stimulated PBMCs; LPS stimulated PBMCs)	IL-23 (LPS stimulated PBMCs; LPS stimulated PBMCs)	MCP-1 (LPS stimulated PBMCs; LPS stimulated PBMCs)	also measured
CCOc1cc([C@@H](CS(C)(=O)=O)N2C(=O)c3cccc(NC(C)=O)c3C2=O)ccc1OC [Apremilast, N-[2-[(1S)-1-(3-ethoxy-4-methoxyphenyl)-2-(methylsulfonyl)ethyl]-2,3-dihydro-1,3-dioxo-1H-isoindol-4-yl]acetamide]	↑	↓	—	↓	—	—	—	↓	—	—	—	↑	↓	↓	—	—	—	—	↓	↓	TNF-α (LPS stimulated PBMCs; LPS stimulated PBMCs): ↓; effect on IL-12 (LPS stimulated PBMCs; LPS stimulated PBMCs): inhibited; effect on IFN-γ production (LPS stimulated PBMCs; LPS stimulated PBMCs): decreased; also recorded: reduced; effect on IL-12p40 production (LPS stimulated PBMCs; LPS stimulated PBMCs): decreased; effect on IL-12p70 production (LPS stimulated PBMCs; LPS stimulated PBMCs): decreased; effect on IL-23 production (LPS stimulated PBMCs; LPS stimulated PBMCs): decreased; also recorded: inhibited; effect on MCP-1 production (LPS stimulated PBMCs; LPS stimulated PBMCs): decreased; also recorded: reduced; effect on TNF-α production (LPS stimulated PBMCs; LPS stimulated PBMCs): decreased; also recorded: inhibited; reduction in plaque psoriasis ([1]; achievable in some patients, just over 4 months of treatment): 75%
[2H]C([2H])([2H])NC(=O)c1nnc(NC(=O)C2CC2)cc1Nc1cccc(-c2ncn(C)n2)c1OC [BMS-986165, 6-(cyclopropanecarboxamido)-4-((2-methoxy-3-(1-methyl-1H-1,2,4-triazol-3-yl)phenyl)amino)-N-(methyl-d3)pyridazine-3-carboxamide]	↑	↑	—	↓	—	↓	—	—	—	—	—	—	↑	↑	↑	—	—	—	↑↑	↓	increase of IL-23 compared to DMSO group (LPS stimulated PBMCs; 0.2 μM-2 μM BMS-986165): 20 fold; TNF-α (LPS stimulated PBMCs; LPS stimulated PBMCs): ↑; effect on IL-12 (LPS stimulated PBMCs; LPS stimulated PBMCs): increased; increase of TNF-α (LPS stimulated PBMCs; LPS stimulated PBMCs, BMS-986165 alone): 1.2-1.5 fold; effect on IFN-γ production (LPS stimulated PBMCs; LPS stimulated PBMCs): decreased; also recorded: reduced; effect on IL-12p40 production (LPS stimulated PBMCs; LPS stimulated PBMCs): increased; also recorded: induced; effect on IL-12p70 production (LPS stimulated PBMCs; LPS stimulated PBMCs): increased; also recorded: induced; effect on IL-23 production (LPS stimulated PBMCs; LPS stimulated PBMCs): induced; also recorded: increased; effect on MCP-1 production (LPS stimulated PBMCs; LPS stimulated PBMCs): decreased; also recorded: reduced; effect on TNF-α production (LPS stimulated PBMCs; LPS stimulated PBMCs): induced; also recorded: increased; phase 2 clinical trial outcome ([1]; subjects with moderate to severe plaque psoriasis): positive results
